The experiment has as its target T1, Nox4 (Homo sapiens, UniProt Q9NPH5).
T1 sequence (Q9NPH5 1-578): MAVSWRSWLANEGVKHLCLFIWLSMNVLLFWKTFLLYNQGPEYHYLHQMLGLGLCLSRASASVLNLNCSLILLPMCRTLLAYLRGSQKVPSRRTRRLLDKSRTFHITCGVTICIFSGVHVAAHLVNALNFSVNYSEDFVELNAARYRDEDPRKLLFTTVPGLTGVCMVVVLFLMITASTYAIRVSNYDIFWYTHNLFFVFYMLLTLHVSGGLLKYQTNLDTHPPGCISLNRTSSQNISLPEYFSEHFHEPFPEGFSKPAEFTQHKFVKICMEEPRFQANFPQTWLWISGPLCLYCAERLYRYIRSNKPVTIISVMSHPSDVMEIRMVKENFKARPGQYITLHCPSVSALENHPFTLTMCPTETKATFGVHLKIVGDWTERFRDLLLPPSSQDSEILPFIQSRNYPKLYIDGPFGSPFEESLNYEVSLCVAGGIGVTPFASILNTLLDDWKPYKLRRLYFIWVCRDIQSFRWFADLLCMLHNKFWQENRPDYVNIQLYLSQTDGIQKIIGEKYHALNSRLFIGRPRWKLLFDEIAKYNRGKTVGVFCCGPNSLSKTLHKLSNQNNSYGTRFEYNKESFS
The experiment in a line: Amplex Red H2O2 assay in CJ HEK […] cells overexpressing Nox4 (found by screen in T-Rex-293 with inducible Nox4); H2O2 counter-screen and DPPH redox control. The format is cell-based. (In general: Counterscreens check selectivity or assay interference.)

SMILES strings stand for the structures.

A word on the IC50: it is the midpoint of a concentration-inhibition curve. Higher therefore signals weaker potency.

In turn, `COc1cccc(N2CCN(Cc3nc(N)nc(Nc4ccc(C)c(C)c4)n3)CC2)c1` [GLX481304] displayed an IC50 of 1250 nM.

For the origin of these results see publication PMC8184855, “A small molecule inhibitor of Nox2 and Nox4 improves contractile function after ischemia–reperfusion in the mouse heart” (Scientific Reports, 2021).
